Here are results for five compounds from PMC5813016 (Nature Communications, 2018).

Structures are written as SMILES. “And” between values parts separate entries of the source, which are not always exact repeats. Equal values may be shown once. “Also recorded” adds a separate entry of the source.

For orientation: fraction unbound means the share of the substance not bound to proteins or other matrix.

Data set [1] in a line: Plasma concentrations in monkey EBR study. It counts as in vivo, cynomolgus monkey. As to conditions: mean ± SD. As for the experimental part: For both compounds, blood collections occurred on day 1, day 2, and day 3. All blood samples were placed on wet ice until centrifugation. Following centrifugation, the plasma was transferred to polypropylene tubes and stored frozen at –20 °C to –80 °C until analysis.

In data set [2] the test system is rats with unilateral 6-OHDA lesions. The data set is described as follows: Rat unilateral 6-OHDA lesion model, contralateral rotations. The format is in vivo, Sprague-Dawley rat. As to conditions: for contralateral rotational behavior on repeated dosing: 6-OHDA lesioned rats, six doses every 12 h, A-77636 0.32 mg/kg s.c., PF-2334 10.78 mg/kg oral; for pairwise contrast of rotational speed, estimate: 6-OHDA rats. As for the experimental part:
Sprague-Dawley rats with 6-OHDA lesions were obtained from Taconic (Rensselaer, NY). For the lesion surgery rats (~175 g) were anesthetized with isoflurane and given desipramine to protect noradrenergic neurons (10 mg/kg). The medial forebrain was targeted using AP:−4.3 mm; ML:−1.2 mm; DV:8.3 mm using a 30 G cannula. […] The cannula was left in place post-infusion for 5 min. To assess the extent of the lesion animals were given an apomorphine (0.05 mg/kg S.C.) challenge 21 day after the lesion surgery. Matched sham lesioned animals from the same source received exactly the same procedures except saline was infused into the brain. Only animals with more than 180 contralateral rotations over 30 min or more than 30 rotations in multiple 5 min intervals were used for the study. Experiments began 12 weeks after lesion.
Rats with sham (n = 20) and unilateral 6-OHDA lesions (n = 17) were obtained and four weeks after lesion used for the study. […] Animals followed a normal light cycle (6:00 AM lights on and 6:00 PM lights off). Animals were provided with food and water ad libitum in the chambers. Activity was monitored with infrared ceiling cameras (Y-cam, London, UK) and rotational behavior was quantified by automated movie analysis via validated custom software. Animals were acclimated and recorded for 2 h to the test chambers prior to the first dose.
Rotational behavior was detected using custom software written in Python language, version 2.7. OpenCV library, version 2.10 was used for video analyses[73],[74]. R software, version 3.1.0, was used for statistical analyses. Rotational behavior is described as the average number of rotations per minute (RPM) during the 6 h period immediately following each dose. To quantify changes within each treatment group as well as differences between treatments over time we used a longitudinal mixed model two-way ANOVA[75] with time, treatment, and their interaction as fixed factors and animal as a random factor. Least-squares means for specified factors were estimated using lsmeans library. Post-hoc comparisons to reference time point were adjusted for multiple hypothesis testing via Dunnett′s method. All statistical tests were performed two-tailed at a 5% level of significance.

Data set [3] is described as follows: Equilibrium dialysis, unbound fraction in rat brain homogenate. The format is in vitro ADME. As to conditions: read-out: unbound fraction in rat brain homogenate (fu,b). On the technique in general: In equilibrium dialysis only unbound substance equilibrates across the membrane.
The subject of another data set is human D1R K81R mutant. Nature of the data set: cAMP assay, D1R mutant K81R. As to conditions: relative to wild-type D1R; each table line is one experiment (Experiment # 1-6). In general terms: Cyclic AMP is a second messenger, typically raised through Gs and lowered through Gi signalling.
For a further data set, the system named is human D1R S107A mutant. Nature of the data set: cAMP assay, D1R mutant S107A. As to conditions: relative to wild-type D1R; each table line is one experiment (Experiment # 1-6).
For the next data set, the system named is human D1R W318A mutant. Nature of the data set: cAMP assay, D1R mutant W318A. As to conditions: relative to wild-type D1R; each table line is one experiment (Experiment # 1-6).
The test system of the next data set is human D1R S198A mutant. The data set is described as follows: cAMP assay, D1R mutant S198A. As to conditions: relative to wild-type D1R; each table line is one experiment (Experiment # 1-6).
The subject of the next data set is human D1R Y194F mutant. Nature of the data set: cAMP assay, D1R mutant Y194F. As to conditions: relative to wild-type D1R; each table line is one experiment (Experiment # 1-6).
Setting [4] is: 1 mg/kg/day subcutaneous dose, Day 1, 1 h post-dose.
[5] abbreviates: 1 mg/kg/day subcutaneous dose, Day 1, 6 h post-dose.
[6] abbreviates: 1 mg/kg/day subcutaneous dose, Day 2, 1 h post-dose.
Setting [7] is: 1 mg/kg/day subcutaneous dose, Day 2, 6 h post-dose.
[8] abbreviates: 1 mg/kg/day subcutaneous dose, Day 3, 1 h post-dose.
[9] abbreviates: 1 mg/kg/day subcutaneous dose, Day 3, 6 h post-dose.
The mark [10] stands for this setting: 0.9 mg/kg/day split oral dose, Day 1, 5 h post-dose.
Setting [11] is: 0.9 mg/kg/day split oral dose, Day 2, 1 h post-dose.
[12] abbreviates: 0.9 mg/kg/day split oral dose, Day 2, 5 h post-dose.
The mark [13] stands for this setting: 0.9 mg/kg/day split oral dose, Day 3, 1 h post-dose.
Setting [14] is: 0.9 mg/kg/day split oral dose, Day 3, 5 h post-dose.

As to `NC[C@@H]1O[C@H](C23CC4CC(CC(C4)C2)C3)Cc2c1ccc(O)c2O` [A-77636, reference compound], the “Cp (total plasma concentration)” value in data set [1] (setting [4]) is listed as 79.3 ± 11.4 ng/mL; in data set [1] (setting [5]), 34.8 ± 3.5 ng/mL; in data set [1] (setting [6]) it was 73.1 ± 13.8 ng/mL; in data set [1] (setting [7]) it was 46.3 ± 11.7 ng/mL; in data set [1] (setting [8]), 85.5 ± 19.0 ng/mL; in data set [1] (setting [9]), 40.6 ± 2.8 ng/mL. In addition, the “Cp,u (unbound plasma concentration)” value in data set [1] (setting [4]) was 10.6 ± 1.5 nM; in data set [1] (setting [5]), 4.6 ± 0.5 nM; in data set [1] (setting [6]), 9.8 ± 1.8 nM; in data set [1] (setting [7]), 6.2 ± 1.6 nM; in data set [1] (setting [8]) it was 11.4 ± 2.5 nM; in data set [1] (setting [9]), 5.4 ± 0.4 nM. Also, the “contralateral rotational behavior on repeated dosing” value in data set [2] is recorded as “essentially zero contralateral rotational behavior”. Besides, in data set [3], the fraction unbound worked out at 0.0012.
With `Cc1cc(Oc2cccc(O)c2O)ccc1-c1c(C)ncnc1C` [PF-1437], the “fold shift of cAMP functional potency, K81R (EC50 mutant/ EC50 WT)” value in the data set on human D1R K81R mutant came out at 0.4. Further, the “fold shift of cAMP functional potency, S107A (EC50 mutant/ EC50 WT)” value in the data set with human D1R S107A mutant is 1.2.
With `Cc1n[nH]c(=O)c(C)c1-c1ccc(Oc2nccc3occc23)cc1F` [PF-2334], the “Cp (total plasma concentration)” value was 41.9 ± 9.4 ng/mL in data set [1] (0.9 mg/kg/day split oral dose (0.6 + 0.3 mg/kg 8 h later), Day 1, 1 h post-dose); 47.0 ± 13.9 ng/mL in data set [1] (setting [10]); 71.4 ± 20.1 ng/mL in data set [1] (setting [11]); 99.0 ± 36.3 ng/mL in data set [1] (setting [12]); 89.5 ± 49.4 ng/mL in data set [1] (setting [13]); 106 ± 40 ng/mL in data set [1] (setting [14]). For the same compound, the “Cp,u (unbound plasma concentration)” value in data set [1] (0.9 mg/kg/day split oral dose, Day 1, 1 h post-dose) was determined as 4.8 ± 1.1 nM; in data set [1] (setting [10]) it was 5.4 ± 1.6 nM; in data set [1] (setting [11]), 8.1 ± 2.3 nM; in data set [1] (setting [12]), 11.3 ± 4.1 nM; in data set [1] (setting [13]), 10.2 ± 5.6 nM; in data set [1] (setting [14]), 12.1 ± 4.5 nM. The “contralateral rotational behavior on repeated dosing” value in data set [2] is given as “significantly greater rotational behavior than A-77636 treated animals; also recorded: still displaying contralateral rotational behavior following the 6th dose”. In addition, the “pairwise contrast of rotational speed, estimate” value is given as 0.4016 in data set [2] (PF-2334 10.78 mg/kg p.o. every 12 h, contrast (time range, hours) 24 - 36, least-squares means); 0.3322 in data set [2] (PF-2334, contrast (hours) 24 - 48); 0.371 in data set [2] (PF-2334, contrast (hours) 24 - 60); 1.093 in data set [2] (PF-2334, contrast (hours) 24 - 72 (72 h = quinpirole dose)); -0.06943 in data set [2] (PF-2334, contrast (hours) 36 - 48); -0.03066 in data set [2] (PF-2334, contrast (hours) 36 - 60). Also, the “pairwise contrast of rotational speed, estimate” value in data set [2] (PF-2334, contrast (hours) 36 - 72 (72 h = quinpirole dose)) was 0.6914; in data set [2] (PF-2334, contrast (hours) 48 - 60), 0.03877; in data set [2] (PF-2334, contrast (hours) 48 - 72 (72 h = quinpirole dose)), 0.7609; in data set [2] (PF-2334, contrast (hours) 60 - 72 (72 h = quinpirole dose)), 0.7221. For the same compound, the free fraction (fraction unbound) in data set [3] came out at 0.021.
In the case of `Cc1cc(Oc2nccc3occc23)ccc1-c1c(C)ncc2nccn12` [PF-6142], the “fold shift of cAMP functional potency, W318A (EC50 mutant/ EC50 WT)” value in the data set on human D1R W318A mutant was 16.3 and 20.4. The “fold shift of cAMP functional potency, K81R (EC50 mutant/ EC50 WT)” value with human D1R K81R mutant is 2.7. In addition, in the data set on human D1R S107A mutant, the “fold shift of cAMP functional potency, S107A (EC50 mutant/ EC50 WT)” value came to 2.3. Besides, the “fold shift of cAMP functional potency, S198A (EC50 mutant/ EC50 WT)” value in the data set on human D1R S198A mutant was 6.0 and 7.0 and 6.4 and 7.5.
With `Cc1cc(Oc2nccc3occc23)ccc1-c1c(C)ncnc1C` [PF-8871], the “fold shift of cAMP functional potency, W318A (EC50 mutant/ EC50 WT)” value in the data set on human D1R W318A mutant stood at 12.5. The “fold shift of cAMP functional potency, Y194F (EC50 mutant/ EC50 WT)” value with human D1R Y194F mutant came out at 1.3.
